Here are results for 15 compounds from patent publication US8404689B2, “Heterocyclic amide compounds useful as kinase inhibitors” (Bristol-Myers Squibb Company, priority 2006, dated 2013).

The target in this assay is T1, p38alpha (Homo sapiens, UniProt Q16539).
T1 construct: GST (N); made in house; host or cells: E. coli (pGEX vector)
The assay can be described thus: p38α Assay (Caliper LabChip, fluoresceinated peptide). In kind it is biochemical. Particulars: ratio of p38 beta IC50 to p38 alpha IC50; higher numbers indicate greater alpha selectivity.

T1 sequence (Q16539 whole entry): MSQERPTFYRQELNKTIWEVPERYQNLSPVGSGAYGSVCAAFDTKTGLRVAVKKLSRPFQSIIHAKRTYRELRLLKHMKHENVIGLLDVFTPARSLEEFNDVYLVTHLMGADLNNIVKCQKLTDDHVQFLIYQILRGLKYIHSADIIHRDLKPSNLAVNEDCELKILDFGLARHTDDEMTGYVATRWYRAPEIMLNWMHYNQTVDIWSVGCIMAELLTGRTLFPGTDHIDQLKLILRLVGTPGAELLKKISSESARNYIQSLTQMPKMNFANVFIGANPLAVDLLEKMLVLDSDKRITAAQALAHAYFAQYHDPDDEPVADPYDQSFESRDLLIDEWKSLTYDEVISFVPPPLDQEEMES

On to `Cc1ccc(C(=O)NC2CC2)cc1NC(=O)c1ccc(-c2cccc(C(=O)O)c2)s1` [Example 146, 3-(5-(5-(cyclopropylcarbamoyl)-2-methylphenylcarbamoyl)thiophen-2-yl)benzoicacid], for which the “beta/alpha (alpha selectivity)” value stood at 248.
For `Cc1ccc(C(=O)NC2CC2)cc1NC(=O)c1ccc(-c2cc(F)cc(F)c2)s1` [Example 148, N-(5-(cyclopropylcarbamoyl)-2-methylphenyl)-5-(3,5-difluorophenyl)thiophene-2-carboxamide], the “beta/alpha (alpha selectivity)” value was 160.
`COc1ccc(-c2ccc(C(=O)Nc3cc(C(=O)NC4CC4)ccc3C)s2)c(OC)c1` [Example 153, N-(5-(cyclopropylcarbamoyl)-2-methylphenyl)-5-(2,4-dimethoxyphenyl)thiophene-2-carboxamide]: the “beta/alpha (alpha selectivity)” value was found to be 228.
The value for `Cc1ccc(C(=O)NC2CC2)cc1NC(=O)c1ccc(-c2cccc(N)c2)s1` [Example 159, 5-(3-aminophenyl)-N-(5-(cyclopropylcarbamoyl)-2-methylphenyl)thiophene-2-carboxamide] was 200; that for `Cc1ccc(C(=O)NC2CC2)cc1NC(=O)c1ccc(-c2cccc(CO)c2)s1` [Example 160, N-(5-(cyclopropylcarbamoyl)-2-methylphenyl)-5-(3-(hydroxymethyl)phenyl)thiophene-2-carboxamide] was 233; that for `Cc1ccc(C(=O)NC2CC2)cc1NC(=O)c1ccc(-c2ccc(F)nc2)s1` [Example 169, N-(5-(cyclopropylcarbamoyl)-2-methylphenyl)-5-(6-fluoropyridin-3-yl)thiophene-2-carboxamide] was 257.
Turning to `CCNC(=O)c1ccc(-c2ccc(C(=O)Nc3cc(C(=O)NC4CC4)ccc3C)s2)cc1` [Example 181, N-(5-(cyclopropylcarbamoyl)-2-methylphenyl)-5-(4-(ethylcarbamoyl)phenyl)thiophene-2-carboxamide], the “beta/alpha (alpha selectivity)” value amounted to 240.
For `Cc1ccc(C(=O)NC2CC2)cc1NC(=O)c1ccc(-c2ccc(C(=O)NC(C)C)cc2)s1` [Example 182, N-(5-(cyclopropylcarbamoyl)-2-methylphenyl)-5-(4-(isopropylcarbamoyl)phenyl)thiophene-2-carboxamide], the “beta/alpha (alpha selectivity)” value stood at 118.
`Cc1ccc(C(=O)NC2CC2)cc1NC(=O)c1ccc(-c2ccc(C(N)=O)cc2)s1` [Example 185, 5-(4-carbamoylphenyl)-N-(5-(cyclopropylcarbamoyl)-2-methylphenyl)thiophene-2-carboxamide]: the “beta/alpha (alpha selectivity)” value worked out at 162.
`Cc1ccc(C(=O)NC2CC2)cc1NC(=O)c1ccc(-c2ccc[n+]([O-])c2)s1` [Example 196, 3-(5-(5-(Cyclopropylcarbamoyl)-2-methylphenylcarbamoyl)thiophen-2-yl)pyridine 1-oxide]: the “beta/alpha (alpha selectivity)” value was 225.
As for `Cc1ccc(C(=O)NC2CC2)cc1NC(=O)c1cc(-c2cccnc2)cs1` [Example 204, N-(5-(Cyclopropylcarbamoyl)-2-methylphenyl)-4-(pyridin-3-yl)thiophene-2-carboxamide], the “beta/alpha (alpha selectivity)” value was 379.
For the compound `Cc1ccc(C(=O)NC2CC2)cc1NC(=O)c1ccc(-c2ncccc2C(F)(F)F)s1` [Example 210, N-(5-(Cyclopropylcarbamoyl)-2-methylphenyl)-5-(3-(trifluoromethyl)pyridin-2-yl)thiophene-2-carboxamide], the “beta/alpha (alpha selectivity)” value amounted to 433.
Take `Cc1ccc(C(=O)NC2CC2)cc1NC(=O)c1c[nH]c2ccccc12` [Example 221, N-(5-(cyclopropylcarbamoyl)-2-methylphenyl)-1H-indole-3-carboxamide]: the “beta/alpha (alpha selectivity)” value is 540.
`Cc1ccc(C(=O)NC2CC2)cc1NC(=O)c1ccc2c(C#N)cn(C)c2c1` [Example 223, 3-Cyano-N-(5-(cyclopropylcarbamoyl)-2-methylphenyl)-1-methyl-1H-indole-6-carboxamide]: the “beta/alpha (alpha selectivity)” value is recorded as 423.
For the compound `Cc1ccc(C(=O)NC2CC2)cc1NC(=O)c1ccc2ccn(CCN3CCOCC3)c2c1` [Example 225, N-(5-(Cyclopropylcarbamoyl)-2-methylphenyl)-1-(2-morpholinoethyl)-1H-indole-6-carboxamide], the “beta/alpha (alpha selectivity)” value is reported as 448.
